Measured values from the NIST ThermoML archive (doi:10.1016/j.jct.2016.09.026).

Key:
[1] = Crystal
[2] = Molar enthalpy of transition or fusion; settings: Crystal; DSC
[3] = molar heat capacity at constant pressure; settings: 101.33 kPa, Crystal, Small sample (50 mg) DSC
[4] = molar enthalpy of vaporization or sublimation; settings: 381.12 K; Crystal; Static calorimetry

CCC(=O)c1ccc(O)cc1 [1-(4-hydroxyphenyl)-1-propanone]
Settings	mass density [kg/m3]
[1], 298 K, 101.33 kPa, X-ray diffraction	1273.1

Settings	Normal melting temperature [°C]	molar heat capacity at constant pressure [J/K/mol]
[1], DTA	148.5	–
[3], 288.66 K	–	188.2
[3], 289.98 K	–	188.2
[3], 291.28 K	–	189.2
[3], 292.55 K	–	189.9
[3], 293.82 K	–	190.1
[3], 295.08 K	–	191.4
[3], 296.34 K	–	192.1
[3], 297.6 K	–	192.7
[3], 298.85 K	–	192.9
[3], 300.11 K	–	193.6
[3], 301.36 K	–	194.5
[3], 302.61 K	–	195.3
[3], 303.87 K	–	196.9
[3], 305.13 K	–	197.5
[3], 306.38 K	–	198.3
[3], 307.64 K	–	198.5
[3], 308.89 K	–	199.3
[3], 310.14 K	–	199.8
[3], 311.39 K	–	201
[3], 312.64 K	–	201.7
[3], 313.9 K	–	202.7
[3], 315.15 K	–	203.5
[3], 316.4 K	–	203.9
[3], 317.65 K	–	204.9
[3], 318.9 K	–	204.9
[3], 320.15 K	–	206.1
[3], 321.41 K	–	206.9
[3], 322.66 K	–	207.6
[3], 323.91 K	–	208.3
[3], 325.16 K	–	209.1
[3], 326.41 K	–	209.8
[3], 327.66 K	–	210.5
[3], 328.91 K	–	211.5
[3], 330.16 K	–	212
[3], 331.41 K	–	212.6
[3], 332.66 K	–	213.6
[3], 333.91 K	–	214.1
[3], 335.16 K	–	215
[3], 336.41 K	–	216.1
[3], 337.66 K	–	216.6
[3], 338.91 K	–	217.2
[3], 340.16 K	–	217.3
[3], 341.41 K	–	218.3
[3], 342.66 K	–	219.2
[3], 343.91 K	–	220.2
[3], 345.16 K	–	220.7
[3], 346.41 K	–	222
[3], 347.66 K	–	222.2
[3], 348.91 K	–	223.1
[3], 350.15 K	–	223.8
[3], 351.4 K	–	225
[3], 352.65 K	–	225.9
[3], 353.9 K	–	226.5
[3], 355.15 K	–	226.9
[3], 356.4 K	–	227.5
[3], 357.65 K	–	228.2
[3], 358.9 K	–	228.9
[3], 360.15 K	–	229.6
[3], 361.4 K	–	230.9
[3], 362.65 K	–	231.4
[3], 363.9 K	–	232.2
[3], 365.15 K	–	232.7
[3], 366.39 K	–	233.5
[3], 367.65 K	–	235.1
[3], 368.9 K	–	235.7
[3], 370.15 K	–	236.6
[3], 371.4 K	–	237.2
[3], 372.65 K	–	237.9
[3], 373.9 K	–	238.7
[3], 375.15 K	–	239.3
[3], 376.4 K	–	240.8
[3], 377.64 K	–	241.3
[3], 378.89 K	–	242.4
[3], 380.14 K	–	243.1
[3], 381.39 K	–	243.7
[3], 382.64 K	–	244.3
[3], 383.89 K	–	245.9

Settings	Molar enthalpy of transition or fusion [kcal/mol]	molar enthalpy [kcal/mol]
[2]	7.56	–
[4]	–	26.87
